Laboratory results from patent US20230055705A1, “SUBSTITUTED THIOPHENE CARBOXAMIDES AND DERIVATIVES THEREOF” (Bayer Aktiengesellschaft, priority 2019, published 2023).

What was measured:
Alternaria alternata = Alternaria alternata in vitro cell test; type: cell-based; settings: 120 h, 20 ppm of active ingredient, 5 days incubation, read-out: efficacy (inhibition of fungal growth)
Protocol: (§1) • Solvent: DMSO • Culture medium: 14.6 g anhydrous D-glucose (VWR), 7.1 g Mycological Peptone (Oxoid), 1.4 g granulated Yeast Extract (Merck), QSP 1 liter • Inoculum: spores suspension
(§2) Fungicides were solubilized in DMSO and the solution used to prepare the required range of concentrations. The final concentration of DMSO used in the assay was ≤[…]1%.
A spore suspension of A. alternata was prepared and diluted to the desired spore density.
(§3) Fungicides were evaluated for their ability to inhibit spore germination and mycelium growth in liquid culture assay. The compounds were added in the desired concentration to the culture medium with spores. After 5 days incubation, fungi-toxicity of compounds was determined by spectrometric measurement of mycelium growth. Inhibition of fungal growth was determined by comparing the absorbance values in wells containing the fungicides with the absorbance in control wells without fungicides.

Uromyces appendiculatus = assay: In vivo preventive test on Uromyces appendiculatus (bean rust); settings: 240 h, evaluated 10 days after inoculation, read-out: efficacy; for pest or weed control at 125 ppm: 125 ppm of active ingredient; for pest or weed control at 500 ppm: 500 ppm of active ingredient
Method in brief: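 Young bean plants sprayed with compound in acetone/DMSO/Tween diluted in water, inoculated 72 h later with U. appendiculatus spore suspension. Held 24 h at 20 °C, 100% RH, then 9 days at 20 °C, 70-80% RH. Efficacy scored 10 days post-inoculation versus solvent-treated controls (0% = control, 100% = no disease).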

[1] = tested on: Colletotrichum lindemuthianum; assay: Colletotrichum lindemuthianum in vitro cell test; type: cell-based; settings: 144 h, 20 ppm of active ingredient, 6 days incubation, read-out: efficacy (inhibition of fungal growth)
Protocol: as §1, §2
A spore suspension of C. lindemuthianum was prepared and diluted to the desired spore density.
as §3, with “inhibit spores” for “inhibit spore”, “After 6” for “After 5”

[2] = tested on: Pseudomonas syringae pv. tomato; assay: Pseudomonas syringae pv. tomato in vitro cell test; type: cell-based; settings: 20 ppm of active ingredient, 24 h incubation, read-out: efficacy (inhibition of bacteria growth)
Method in brief: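 Compounds in 1% final DMSO were added to LB broth containing OD-adjusted bacterial suspension. After 24 h, absorbance measured growth, and inhibition was expressed relative to wells lacking active ingredient.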

Structure (SMILES)	inhibition at 20 ppm (Alternaria alternata)	pest or weed control at 125 ppm (Uromyces appendiculatus)	pest or weed control at 500 ppm (Uromyces appendiculatus)	inhibition at 20 ppm [1]	inhibition at 20 ppm [2]
COC(=O)[C@H](CCCNC(=N)N)NC(=O)c1sc(Cl)c(Cl)c1Cl [I.008]	≤ 30%	70 to 79%	90 to 100%	≤ 30%	≤ 30%
CCOC(=O)C(C#N)NC(=O)c1sc(Cl)c(Cl)c1Cl (stereo not drawn) [I.009]	≤ 30%	90 to 100%	90 to 100%	≤ 30%	≤ 30%
COC(=O)C(Cc1c[nH]cn1)NC(=O)c1sc(Cl)c(Cl)c1Cl (stereo not drawn) [I.012]			90 to 100%	≤ 30%	≤ 30%
COC(=O)[C@H](CC(N)=O)NC(=O)c1sc(Cl)c(Cl)c1Cl [I.015]	≤ 30%	80 to 89%		≤ 30%	≤ 30%
COC(=O)C(CC(F)F)NC(=O)c1sc(Cl)c(Cl)c1Cl (stereo not drawn) [I.016]	≤ 30%	90 to 100%	90 to 100%	≤ 30%	≤ 30%
O=C(O)CNC(=S)c1sc(Cl)c(Cl)c1Cl [I.022, N-[(3,4,5-trichloro-2-thienyl)carbonothioyl]glycine]	≤ 30%		90 to 100%	≤ 30%	≤ 30%
COC(=O)CNC(=S)c1sc(Cl)c(Cl)c1Cl [I.038, methyl N-[(3,4,5-trichloro-2-thienyl)carbonothioyl]glycinate]	≤ 30%		90 to 100%	≤ 30%	≤ 30%
CCOC(=O)C(CC(N)=O)NC(=O)c1sc(Cl)c(Cl)c1Cl (stereo not drawn) [I.046]	≤ 30%	90 to 100%	90 to 100%	≤ 30%	≤ 30%
CCOC(=O)C(CC(F)(F)F)NC(=O)c1sc(Cl)c(Cl)c1Cl (stereo not drawn) [I.048]	≤ 30%	90 to 100%	90 to 100%	≤ 30%	≤ 30%
C[C@H](NC(=S)c1sc(Cl)c(Cl)c1Cl)C(=O)O [I.113]	≤ 30%	90 to 100%	90 to 100%	≤ 30%	≤ 30%
C[C@H](NC(=O)c1sc(Cl)c(Cl)c1Cl)C(N)=O [I.119]	≤ 30%	90 to 100%	90 to 100%	≤ 30%	≤ 30%
COC(=O)[C@H](CSC(=O)N(C)C)NC(=O)c1sc(Cl)c(Cl)c1Cl [I.142]	≤ 30%	90 to 100%			≤ 30%
CCOC(=O)C(CSC)NC(=O)c1sc(Cl)c(Cl)c1Cl (stereo not drawn) [I.143]	≤ 30%	90 to 100%		≤ 30%	≤ 30%
COC(=O)C[C@H](NC(=O)c1sc(Cl)c(Cl)c1Cl)C(=O)OC [I.144]	≤ 30%	90 to 100%			≤ 30%
